Measurements published in PMC10387993, “New pyrimidine-N-β-D-glucosides: synthesis, biological evaluation, and molecular docking investigations” (Turkish Journal of Chemistry, 2023).
In brackets after ≈: the same amount, converted by molar mass.

Columns and labels:
Assay type in all cases: cell-based
in vitro = details: human, LC50
Protocol: (§1) The cell lines were cultured in a cell medium (Dulbecco’s modified eagle’s or RPMI 1640) enriched with 10% (v/v) fetal bovine serum and 2% (v/v) Penicillin-Streptomycin (10,000 U/mL). First, old medium was removed out of the flask when the cells reached approximately 80% confluence. Next, cells were taken from the flasks surface using trypsin-EDTA solution and then subjected to centrifugation. Following, the cell pellet was suspended with fresh media and was inoculated into wells.
(§2) A cell suspension containing approximately 1 × 10^4 cells in 100 μL was seeded into the wells of 96-well culture plates. […]. The final volume of the wells was set to 200 μL by medium. Cell proliferation assay was evaluated by MTT (yellow tetrazolium MTT (3-(4,5-dimethylthiazolyl-2)-2,5-diphenyltetrazolium bromide) methods. Briefly, an MTT stock solution (5 mg of MTT/mL of distilled water) was filtered and kept at −20 °C until use. The cells were exposed to an MTT reagent (consisting of one parts of MTT stock solutions and nine parts of fresh RPMI 1640 without phenol red) for 4 h to form MTT formazan dye followed by the dye dissolved in DMSO with Sorenson’s buffer for 30 min at room temperature and then the plate was measured at 560 nm, with 690 nm as a reference interval, using a microplate reader. Each experiment was repeated at least three times for each cell line.
(§3) IC50 value is a concentration that inhibits half of the cells in vitro. The half maximal inhibitory concentration (IC50) of the test and control compounds was calculated using XLfit5 or excel spreadsheet and represent in μM at 95% confidence intervals. The proliferation assay results were expressed as the percent inhibition according to the following formula: % Inhibition = [1 - (Absorbance of Treatments /Absorbance of DMSO) × 100]. Three dose response parameters (GI50, TGI, LC50) were calculated according to the following formulas using the absorbance measurements of time zero (Tz), control growth (C), and test growth in the presence of drug (Ti). Growth inhibition of 50% (GI50) was calculated from [(Ti-Tz)/(C-Tz)] × 100 = 50, which is the drug concentration resulting in a 50% reduction in the net growth increase in control cells during the drug incubation. The drug concentration resulting in total growth inhibition (TGI) was calculated from Ti = Tz. The LC50 indicating a net loss of cells following treatment was calculated from [(Ti-Tz)/Tz] × 100 = −50.

normal FL cells = assay: cells; details: for GI50 / IC50 / IC (total growth inhibition): FL normal cells, MTT; for IC50: read-out: IC50; for IC (total growth inhibition): read-out: TGI
Protocol: as §1, §2, §3

[1] = LDH cytotoxic activity assay, HeLa; details: human, HeLa cells
Protocol: as §1
(§4) Approximately 5 × 10^3 cells in 100 μL were placed into 96-well plates as triplicates and treated with 25, 50, 75, and 100 μg/mL concentrations of test compounds at 37 °C with 5% CO2 for 24 h. LDH activity was obtained by determining absorbance at 492–630 nm using a microplate reader.

[2] = LDH cytotoxic activity assay, HT29; details: human, HT29 cells; for cytotoxicity at 24 h, 25 μg/mL: HT29, 25 μg/mL; for cytotoxicity at 24 h, 50 μg/mL: HT29, 50 μg/mL; for cytotoxicity at 24 h, 75 μg/mL: HT29, 75 μg/mL; for cytotoxicity at 24 h, 100 μg/mL: HT29, 100 μg/mL
Protocol: as §1, §4

[3] = LDH cytotoxic activity assay, A549; details: human, A549 cells; for cytotoxicity at 24 h, 25 μg/mL: A549, 25 μg/mL; for cytotoxicity at 24 h, 50 μg/mL: A549, 50 μg/mL; for cytotoxicity at 24 h, 75 μg/mL: A549, 75 μg/mL; for cytotoxicity at 24 h, 100 μg/mL: A549, 100 μg/mL
Protocol: as §1, §4

[4] = LDH cytotoxic activity assay, Hep3B; details: human, Hep3B cells
Protocol: as §1, §4

[5] = LDH cytotoxic activity assay, MCF7; details: human, MCF7 cells; for cytotoxicity at 24 h, 25 μg/mL: MCF7, 25 μg/mL; for cytotoxicity at 24 h, 50 μg/mL: MCF7, 50 μg/mL; for cytotoxicity at 24 h, 75 μg/mL: MCF7, 75 μg/mL
Protocol: as §1, §4

[6] = LDH cytotoxic activity assay, FL; details: human, FL cells (normal cells)
Protocol: as §1, §4

S. aureus ATCC 25923 = assay: Microdilution MIC assay; details: Staphylococcus aureus, ATCC25923, 24 h, S. aureus ATCC 25923, 24 h at 35 °C; read-out: MIC
How it was run: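 Broth microdilution in microwells; plates incubated 24 h at 35 °C. MIC taken as the lowest concentration with no visible growth (turbidity), read by eye.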

[7] = as the column head prints, head prints FL

Row | SMILES | LC50 (concentration causing 50% net cell loss) (in vitro) [µg/mL] | GI50 (normal FL cells) [µg/mL] | IC50 (normal FL cells) [µg/mL] | IC (total growth inhibition) (normal FL cells) [µg/mL] | cytotoxicity at 24 h, 25 μg/mL [1] [%] | cytotoxicity at 24 h, 50 μg/mL [1] [%] | cytotoxicity at 24 h, 75 μg/mL [1] [%] | cytotoxicity at 24 h, 100 μg/mL [1] [%] | cytotoxicity at 24 h, 25 μg/mL [2] [%] | cytotoxicity at 24 h, 50 μg/mL [2] [%] | cytotoxicity at 24 h, 75 μg/mL [2] [%] | cytotoxicity at 24 h, 100 μg/mL [2] [%] | MIC (S. aureus ATCC 25923) [µg/mL] | further results
1 | Cc1cccc(-c2cc(-c3ccccn3)nc(N[C@@H]3O[C@H](CO)[C@@H](O)[C@H](O)[C@H]3O)n2)c1 [Compound 4, N-[4-(3-methylphenyl)-6-pyridin-2-ylpyrimidin-2-yl]-β-D-glucopyranosylamine] | > 500 | 6.77 (≈ 15.9 µM) | 78.1 (≈ 184 µM) | 79.8 | 26.9 | 64.3 | 77.1 | 97.2 | 28.2 | 35.7 | 62.6 | 74.9 | 250 (≈ 589 µM) | cytotoxicity at 24 h, 25 μg/mL [3]: 26%; cytotoxicity at 24 h, 50 μg/mL [3]: 33.2%; cytotoxicity at 24 h, 75 μg/mL [3]: 61.7%; cytotoxicity at 24 h, 100 μg/mL [3]: 72.5%; cytotoxicity at 24 h, 25 μg/mL [4]: 19.6%; cytotoxicity at 24 h, 50 μg/mL [4]: 28.9%; cytotoxicity at 24 h, 75 μg/mL [4]: 42%; cytotoxicity at 24 h, 100 μg/mL [4]: 64.8%; cytotoxicity at 24 h, 25 μg/mL [5]: 11.6%; cytotoxicity at 24 h, 50 μg/mL [5]: 22.5%; cytotoxicity at 24 h, 75 μg/mL [5]: 30%; cytotoxicity at 24 h, 25 μg/mL ([6]; FL): 24.4%; cytotoxicity at 24 h, 50 μg/mL ([6]; FL): 32.4%; cytotoxicity at 24 h, 75 μg/mL ([6]; FL): 48.3%; cytotoxicity at 24 h, 100 μg/mL ([6]; FL): 69.5%; cytotoxicity at 24 h, 100 μg/mL [6, 7]: 40.2%
2 | Cc1cccc(-c2cc(-c3ccncc3)nc(N[C@@H]3O[C@H](CO)[C@@H](O)[C@H](O)[C@H]3O)n2)c1 [Compound 6, N-[4-(3-methylphenyl)-6-pyridin-4-ylpyrimidin-2-yl]-β-D-glucopyranosylamine] | > 500 | 8.04 (≈ 18.9 µM) | > 500 | > 500 | 14.3 | 29.2 | 44.5 | 47.8 | 24.8 | 34.5 | 68.9 | 85.6 | 500 (≈ 1180 µM) | cytotoxicity at 24 h, 25 μg/mL [3]: 27%; cytotoxicity at 24 h, 50 μg/mL [3]: 32%; cytotoxicity at 24 h, 75 μg/mL [3]: 48.1%; cytotoxicity at 24 h, 100 μg/mL [3]: 72.8%; cytotoxicity at 24 h, 25 μg/mL [4]: 10%; cytotoxicity at 24 h, 50 μg/mL [4]: 15.4%; cytotoxicity at 24 h, 75 μg/mL [4]: 35.9%; cytotoxicity at 24 h, 100 μg/mL [4]: 41.1%; cytotoxicity at 24 h, 25 μg/mL [5]: 7.22%; cytotoxicity at 24 h, 50 μg/mL [5]: 12.5%; cytotoxicity at 24 h, 75 μg/mL [5]: 31.8%; cytotoxicity at 24 h, 25 μg/mL ([6]; FL): 19.1%; cytotoxicity at 24 h, 50 μg/mL ([6]; FL): 27.6%; cytotoxicity at 24 h, 75 μg/mL ([6]; FL): 50.9%; cytotoxicity at 24 h, 100 μg/mL ([6]; FL): 63.4%; cytotoxicity at 24 h, 100 μg/mL [6, 7]: 41.9%
3 | CC(=O)OC[C@H]1O[C@@H](Nc2nc(-c3cccnc3)cc(-c3cccc(C)c3)n2)[C@H](OC(C)=O)[C@@H](OC(C)=O)[C@@H]1OC(C)=O [Compound 14, 2,3,4,6-tetra-O-acetyl-N-[4-(3-methylphenyl)-6-pyridin-3-ylpyrimidin-2-yl]-β-D-glucopyranosylamine] | > 500 | 118 (≈ 199 µM) | > 500 | > 500 | 16.6 | 28.8 | 33.5 | 48.8 | 21 | 44.6 | 61.8 | 72.2 | 500 (≈ 844 µM) | –
4 | CC(=O)OC[C@H]1O[C@@H](Nc2nc(-c3ccncc3)cc(-c3cccc(C)c3)n2)[C@H](OC(C)=O)[C@@H](OC(C)=O)[C@@H]1OC(C)=O [Compound 15, 2,3,4,6-tetra-O-acetyl-N-[4-(3-methylphenyl)-6-pyridin-4-ylpyrimidin-2-yl]-β-D-glucopyranosylamine] | > 500 | 26.7 (≈ 45 µM) | > 500 | > 500 | 18.4 | 31.7 | 37.1 | 56 | 23.8 | 45 | 62.6 | 78.6 | 500 (≈ 844 µM) | –
5 | CC(=O)OC[C@H]1O[C@@H](Nc2nc(-c3ccc(C)cc3)cc(-c3ccccn3)n2)[C@H](OC(C)=O)[C@@H](OC(C)=O)[C@@H]1OC(C)=O [Compound 16, 2,3,4,6-tetra-O-acetyl-N-[4-(4-methylphenyl)-6-pyridin-2-ylpyrimidin-2-yl]-β-D-glucopyranosylamine] | > 500 | 1.71 (≈ 2.89 µM) | 6.31 (≈ 10.6 µM) | 6.44 | 35.7 | 62.6 | 77.1 | 99.2 | 26.4 | 34.4 | 48.6 | 70.2 | > 1000 | –
6 | CC(=O)OC[C@H]1O[C@@H](Nc2nc(-c3ccc(C)cc3)cc(-c3cccnc3)n2)[C@H](OC(C)=O)[C@@H](OC(C)=O)[C@@H]1OC(C)=O [Compound 17, 2,3,4,6-tetra-O-acetyl-N-[4-(4-methylphenyl)-6-pyridin-3-ylpyrimidin-2-yl]-β-D-glucopyranosylamine] | > 500 | 17.2 (≈ 29 µM) | > 500 | > 500 | 16.7 | 23.8 | 32.4 | 48.6 | 21.7 | 35.8 | 51 | 75.7 | > 1000 | –
7 | CC(=O)OC[C@H]1O[C@@H](Nc2nc(-c3ccncc3)cc(-c3ccc(C)cc3)n2)[C@H](OC(C)=O)[C@@H](OC(C)=O)[C@@H]1OC(C)=O [Compound 18, 2,3,4,6-tetra-O-acetyl-N-[4-(4-methylphenyl)-6-pyridin-4-ylpyrimidin-2-yl]-β-D-glucopyranosylamine] | > 500 | 2.01 (≈ 3.39 µM) | 7.46 (≈ 12.6 µM) | 7.58 | 14.2 | 39 | 46.1 | 54.2 | 27.9 | 45.5 | 58.1 | 82.8 | 500 (≈ 844 µM) | LC50 (normal FL cells; human): 352.27 µg/mL (≈ 594 µM)
